Experimental data as given in US9783536B2, “Nitrogen-containing heterocyclic compound or salt thereof” (FUJIFILM Corporation, priority 2013, dated 2017).
Where two headings read alike, the source gives them in different places.

Assays:
[1] = biological target: T1, GST fusion human ERK2 protein (Homo sapiens, UniProt P28482); test: ERK2 enzyme assay (1); type: biochemical; settings: read-out: ERK2 enzyme inhibitory activity (1)
T1 construct: purchased Carna Biosciences, Inc; host or cells: E. coli expression system
Summary of the method: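 IC50 derived from the proportion of phosphorylated 5-FAM peptide, separated from unphosphorylated peptide by microfluidic mobility shift. Compound was first preincubated 15 min at room temperature with 2.5 nmol/L kinase at pH 7.5, then 43.1 μmol/L ATP plus 4.25 μmol/L substrate reacted 120 min at 25 °C.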

[2] = tested on: CHO-K1 cells; test: CHO cell toxicity test; type: cell-based, Chinese hamster; settings: Cricetulus griseus; CHO-K1 cells, 24 hours culture with compound, CellTiter-Glo; read-out: IC50 value (concentration at which the number of viable cells was suppressed to 50% or less)
Summary of the method: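 CHO-K1 cells were cultured 24 h, then exposed 24 h to compound at final 25.00 to 0.20 μmol/L in F-12 with 2% FCS. Viability read by CellTiter-Glo luminescence; inhibition % = 100 − (treated/untreated signal)×100.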

[3] = biological target: T1, GST fusion human ERK2 protein; test: ERK2 enzyme assay (2); type: biochemical; settings: read-out: ERK2 enzyme inhibitory activity (2)
Summary of the method: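 IC50 values come from mobility-shift measurement of phosphorylated versus unphosphorylated 5-FAM peptide substrate after EDTA quench. Beforehand, compound and 1.25 nmol/L E. coli-expressed GST–human ERK2 stood 15 min at room temperature (pH 7.5), then 1 mmol/L ATP and 4.25 μmol/L substrate (final) were added for 120 min at 25 °C.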

[4] = biological target: T2, human PI3Kα protein (Homo sapiens, UniProt P42336); test: PI3Kα enzyme assay (ADP-Glo); type: biochemical; settings: read-out: PI3Kα enzyme inhibitory activity
T2 construct: purchased Carna Biosciences, Inc; host or cells: baculovirus expression system
Summary of the method: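 Biotinylated human PI3Kα (baculovirus-expressed, 4.5 nmol/L) pre-incubated 15 min with compound in Tris-HCl pH 7.5, MgCl2, BSA; reaction 60 min at 25° C with 50 μmol/L PIP2 and 100 μmol/L ATP final. ADP quantified by ADP-Glo luminescence; IC50 calculated.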

[5] = 2.5 nmol/L ERK2, ATP 43.1 μmol/L
[6] = 4.5 nmol/L PI3Kα, PIP2 50 μmol/L, ATP 100 μmol/L

T2 sequence (P42336 whole entry): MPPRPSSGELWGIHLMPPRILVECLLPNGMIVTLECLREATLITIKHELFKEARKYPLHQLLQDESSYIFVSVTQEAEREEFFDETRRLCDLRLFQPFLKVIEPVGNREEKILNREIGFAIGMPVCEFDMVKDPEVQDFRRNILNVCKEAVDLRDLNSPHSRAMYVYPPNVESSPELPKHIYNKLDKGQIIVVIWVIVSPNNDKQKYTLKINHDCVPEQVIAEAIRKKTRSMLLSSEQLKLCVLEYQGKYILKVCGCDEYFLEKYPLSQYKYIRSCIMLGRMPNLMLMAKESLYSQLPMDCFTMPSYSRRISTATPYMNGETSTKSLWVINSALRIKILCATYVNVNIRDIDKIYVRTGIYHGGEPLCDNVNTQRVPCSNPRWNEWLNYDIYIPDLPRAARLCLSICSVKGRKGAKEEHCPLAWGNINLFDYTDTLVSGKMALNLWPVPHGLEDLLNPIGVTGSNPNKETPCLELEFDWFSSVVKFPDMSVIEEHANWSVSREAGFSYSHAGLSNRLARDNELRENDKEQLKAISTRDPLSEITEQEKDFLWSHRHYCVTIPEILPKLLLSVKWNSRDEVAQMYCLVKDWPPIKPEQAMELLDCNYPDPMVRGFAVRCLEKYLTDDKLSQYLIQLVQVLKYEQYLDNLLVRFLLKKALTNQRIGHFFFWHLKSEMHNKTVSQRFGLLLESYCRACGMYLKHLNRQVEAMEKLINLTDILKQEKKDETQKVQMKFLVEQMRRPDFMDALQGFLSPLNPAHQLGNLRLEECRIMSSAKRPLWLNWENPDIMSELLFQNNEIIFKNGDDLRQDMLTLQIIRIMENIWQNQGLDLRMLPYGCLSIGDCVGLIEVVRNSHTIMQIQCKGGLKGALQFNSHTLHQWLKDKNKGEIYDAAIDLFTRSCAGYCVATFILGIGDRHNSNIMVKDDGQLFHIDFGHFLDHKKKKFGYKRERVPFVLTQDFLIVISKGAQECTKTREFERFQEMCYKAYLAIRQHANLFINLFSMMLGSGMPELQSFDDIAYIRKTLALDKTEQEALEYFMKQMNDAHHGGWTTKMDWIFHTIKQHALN
T2 sequence (P27986 whole entry partner): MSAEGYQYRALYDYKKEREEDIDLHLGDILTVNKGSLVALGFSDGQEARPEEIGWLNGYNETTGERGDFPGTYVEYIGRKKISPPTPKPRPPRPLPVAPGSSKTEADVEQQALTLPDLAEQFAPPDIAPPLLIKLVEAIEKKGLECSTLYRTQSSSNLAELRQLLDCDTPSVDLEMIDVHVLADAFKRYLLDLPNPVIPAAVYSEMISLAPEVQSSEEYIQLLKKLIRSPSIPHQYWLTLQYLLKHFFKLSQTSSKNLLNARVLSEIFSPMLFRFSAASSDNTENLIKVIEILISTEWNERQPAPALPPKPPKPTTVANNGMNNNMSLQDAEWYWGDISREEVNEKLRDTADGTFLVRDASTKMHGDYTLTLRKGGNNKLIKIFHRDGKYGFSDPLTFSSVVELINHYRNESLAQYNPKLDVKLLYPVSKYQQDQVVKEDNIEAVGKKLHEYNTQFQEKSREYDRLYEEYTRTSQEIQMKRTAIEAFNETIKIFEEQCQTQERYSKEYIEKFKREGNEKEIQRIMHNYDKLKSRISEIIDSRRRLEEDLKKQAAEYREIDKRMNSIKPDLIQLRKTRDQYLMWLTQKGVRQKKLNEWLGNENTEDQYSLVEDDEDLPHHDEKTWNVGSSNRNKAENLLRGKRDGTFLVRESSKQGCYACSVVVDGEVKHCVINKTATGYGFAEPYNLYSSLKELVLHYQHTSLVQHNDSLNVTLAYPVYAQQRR
T1 sequence (P28482 whole entry, the tested form may be a part): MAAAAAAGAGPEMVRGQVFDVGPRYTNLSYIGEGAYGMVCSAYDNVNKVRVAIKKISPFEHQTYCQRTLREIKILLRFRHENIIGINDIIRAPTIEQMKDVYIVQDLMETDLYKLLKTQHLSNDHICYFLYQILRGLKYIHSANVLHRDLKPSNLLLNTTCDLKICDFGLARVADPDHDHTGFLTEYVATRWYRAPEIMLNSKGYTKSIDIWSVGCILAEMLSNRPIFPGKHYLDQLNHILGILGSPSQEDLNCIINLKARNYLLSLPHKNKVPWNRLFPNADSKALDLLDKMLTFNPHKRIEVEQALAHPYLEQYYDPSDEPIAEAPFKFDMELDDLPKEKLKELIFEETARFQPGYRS

| IC50 ([1]; ERK2 enzyme assay (1)) | IC50 ([3]; ERK2 enzyme assay (2)) | IC50 [4] | IC50 [1, 5] | IC50 ([3]; 1.25 nmol/L ERK2, ATP 1 mmol/L) | IC50 [4, 6] | SMILES | IC50 [2] |
| --- | --- | --- | --- | --- | --- | --- | --- |
| < 1 µM | < 1 µM | < 1 µM | – | – | – | CC(C)c1nnc(Nc2ccc3ncc(-c4cnn(CCCN5CCCC5)c4)cc3n2)s1 [Example 0365] | ≥ 25 µM |
| – | – | – | < 1 µM | < 1 µM | < 1 µM | c1nc2ccc(Nc3cc(C4CCC4)cnn3)nc2cc1-c1cnn(CCCN2CCCC2)c1 [Example 0015, N-(5-cyclobutylpyridazin-3-yl)-7-(1-(3-(pyrrolidin-1-yl)propyl)-1H-pyrazol-4-yl)-1,5-naphthyridine-2-amineformate] | ≥ 25 µM |
| < 1 µM | < 1 µM | < 1 µM | – | – | – | c1nc2ccc(Nc3nnc(CC4CCCO4)s3)nc2cc1-c1cnn(CCCN2CCCC2)c1 (centres unmarked) [Example 0240] | ≥ 25 µM |
| < 1 µM | < 1 µM | < 1 µM | – | – | – | Cc1nn(C)cc1-c1cnc2ccc(Nc3nnc(C4CCCC4)s3)nc2c1 [Example 0347] | ≥ 25 µM |
| – | – | – | < 1 µM | < 1 µM | < 1 µM | Cc1cnnc(Nc2ccc3ncc(-c4cnn(C)c4)cc3n2)c1 [Example 0139] | ≥ 25 µM |
| < 1 µM | < 1 µM | 1 to 10 µM | – | – | – | CN1CCCC1c1nnc(Nc2ccc3ncc(-c4cnn(C)c4)cc3n2)s1 (centres unmarked) [Example 0247, N-(7-(1-methyl-1H-pyrazol-4-yl)-1,5-naphthyridin-2-yl)-5-(1-methylpyrrolidin-2-yl)-1,3,4-thiadiazole-2-amine] | ≥ 25 µM |
| < 1 µM | < 1 µM | < 1 µM | – | – | – | OCC(O)Cn1cc(-c2cnc3ccc(Nc4nnc(C5CCCC5)s4)nc3c2)cn1 (centres unmarked) [Example 0338, 3-(4-(6-((5-Cyclopentyl-1,3,4-thiadiazol-2-yl)amino)-1,5-naphthyridin-3-yl)-1H-pyrazol-1-yl)propane-1,2-diol] | ≥ 25 µM |
| < 1 µM | < 1 µM | < 1 µM | – | – | – | CC1(C)COc2nnc(Nc3ccc4ncc(-c5cnn(CCCN6CCCC6)c5)cc4n3)cc21 [Example 0401, 5,5-Dimethyl-N-(7-(1-(3-(pyrrolidin-1-yl)propyl)-1H-pyrazol-4-yl)-1,5-naphthyridin-2-yl)-5,6-dihydrofuro[2,3-c]pyridazine-3-amine] | ≥ 25 µM |
| < 1 µM | < 1 µM | < 1 µM | – | – | – | OCCCn1cc(-c2cnc3ccc(Nc4nnc(C5CCCC5)s4)nc3c2)cn1 [Example 0316, 3-(4-(6-((5-cyclopentyl-1,3,4-thiadiazol-2-yl)amino)-1,5-naphthyridin-3-yl)-1H-pyrazol-1-yl)propan-1-ol] | ≥ 25 µM |
| – | – | – | < 1 µM | < 1 µM | < 1 µM | c1cnnc(Nc2ccc3ncc(-c4cnn(CCCN5CCCC5)c4)cc3n2)c1 [Example 0137, N-(pyridazin-3-yl)-7-(1-(3-(pyrrolidin-1-yl)propyl)-1H-pyrazol-4-yl)-1,5-naphthyridine-2-amine] | ≥ 25 µM |
| < 1 µM | < 1 µM | < 1 µM | – | – | – | CC(C)c1cnnc(Nc2ccc3ncc(-c4cnn(CCCO)c4)cc3n2)c1 [Example 0473] | ≥ 25 µM |
